Publication PMC6191125, “Peptidoglycan potentiates the membrane disrupting effect of the carboxyamidated form of DMS-DA6, a Gram-positive selective antimicrobial peptide isolated from Pachymedusa dacnicolor skin” (PLoS ONE, 2018)
In brackets after ≈: the same amount, converted by molar mass. Residues, ends and D or L forms follow the SMILES beside them.

Tests used:
E. faecalis ATCC 29212 = format: cell-based, Enterococcus faecalis
From the text: (§1) Gram-negative bacterial strains, Escherichia coli ATCC 8739, Escherichia coli ATCC 35218, Escherichia coli ML 35p, Escherichia coli K12, Pseudomonas aeruginosa ATCC 27853, and Gram-positive bacterial strains, Enterococcus faecalis ATCC29212, Kocuria rhizophila ATCC 9341, Staphylococcus aureus ATCC 6538, Staphylococcus aureus ATCC 29213, Staphylococcus aureus ST 1065, Staphylococcus epidermidis BM 3302, and Bacillus subtilis subsp. subtilis CIP 52.65, as well as two multiresistant strains (Staphylococcus aureus DAR 5829 (http://www.ncbi.nlm.nih.gov/bioproject/228435) and Enterococcus faecium BM 4147 [20] were cultured as described previously. The minimal inhibitory concentration (MIC) of the peptides was determined by the microtiter broth dilution method. Overnight precultures were subcultured in Luria Bertani (LB) medium at 37°C with vigorous shaking until mid-log phase (~2h) and diluted to 10^7 cfu/mL. Peptide solutions were prepared at different concentrations (from 2 to 500 μM) by successive 2-fold dilutions in water from 1 mM stock solutions. In each row of a 96-well nonbinding surface plate, 90 μL of bacteria were incubated with 10 μL of peptide solutions for 18 h at 37°C. The final peptide concentrations ranged from 0.2 to 100 μM. Cell growth was evaluated by visual inspection and absorbance at 600 nm to determine the lowest concentration of peptide that prevented cell growth. Wells were either opaque, indicating stationary phase growth, or transparent indicating no growth. The lowest concentration showing no visible growth was considered as the MIC. After measurement of the MIC, the bactericidal activity was determined by the addition of resazurin dye (30 μL, 0.01% w/v) to each well [22]. The plates were further incubated at 37°C for 18 h. Wells in which the dye turned pink indicated live bacteria, whereas wells in which the dye remained blue indicated dead bacteria. The minimal bactericidal concentration (MBC) is the lowest concentration with blue coloration (99.9% of bacteria were killed). Three to five independent assays were performed in triplicate. Positive controls correspond to medium plus 0.2% formaldehyde and negative controls to medium without peptide.

S. aureus ATCC 6538 = format: cell-based, Staphylococcus aureus
From the text: as §1

S. aureus ATCC 29213 = format: cell-based, Staphylococcus aureus
From the text: as §1

S. aureus ST 1065 = format: cell-based, Staphylococcus aureus
From the text: as §1

S. aureus DAR 5829 = format: cell-based, Staphylococcus aureus; conditions: S. aureus DAR 5829, multi-resistant strain
From the text: as §1

[1] = test system: Ps. aeruginosa ATCC 27853; format: cell-based, Pseudomonas aeruginosa; conditions: LB, 10^7 cfu/mL, 18 h at 37°C, peptide 0.2-100 μM, averaged over >=3 independent experiments in triplicate
From the text: as §1, with “Wells were either opaque, indicating stationary phase growth, or transparent indicating no growth. The lowest concentration showing no visible growth was considered as the MIC. After measurement of the MIC, the bactericidal activity was determined by the addition of resazurin dye (30 μL, 0.01% w/v) to each well [22]. The plates were further incubated at 37°C for 18 h. Wells in which the dye turned pink indicated live bacteria, whereas wells in which the dye remained blue indicated dead bacteria. The minimal bactericidal concentration (MBC) is the lowest concentration with blue coloration (99.9% of bacteria were killed). Three to five independent assays were performed in triplicate. Positive controls correspond to medium plus 0.2% formaldehyde and negative controls to medium without peptide.” left out

S. aureus ST1065 = assay: Bacterial membrane permeabilization (ONPG hydrolysis); format: cell-based, Staphylococcus aureus; conditions: S. aureus ST 1065, 2.5 mM ONPG, absorbance at 420 nm; two independent experiments in triplicate
Procedure: Membrane permeabilization was assessed by monitoring the hydrolysis of ortho-nitrophenyl β-D-galactopyranoside (ONPG) by the β-galactosidase enzyme, using the S. aureus ST1065 strain, specifically designed for membrane permeabilization assays, through detection of cytoplasmic β-galactosidase activity leakage. Bacteria were grown in LB to an absorbance of 0.5 at 600 nm, pelleted by centrifugation, and the pellets were washed twice with PBS. Pellets were then resuspended in 10% LB in PBS to an absorbance of 0.5 at 600 nm. Aliquots (15 μL) of bacterial suspension were mixed with 2.5 mM ONPG and incubated with various concentrations of peptide in a 96-well plate. The hydrolysis of ONPG was monitored by measuring the absorbance at 420 nm of released o-nitrophenol with a Fluostar Galaxy microplate reader (BMG LabTech, France).

S. epidermidis BM3302 = format: cell-based, Staphylococcus epidermidis
From the text: as §1

[2] = Circular dichroism, helical content with lipid vesicles; format: physicochemical; conditions: CD, 10 mM phosphate buffer pH 7.4, 20 μM peptide, peptide/lipid molar ratio 1/50
From the text: Lipid vesicles were formed using bacterial lipids extracted as described above or commercially available synthetic lipids. The lipids, 1-palmitoyl-2-oleoyl-sn-glycero-3-phosphocholine (POPC), 1-palmitoyl-2-oleoyl-sn-glycero-3-phospho-(1'-rac-glycerol) (POPG), 1,2-dimyristoyl-sn-glycero-3-phosphoglycerol (DMPG), 1.2-dioleyl-sn-glycero-3-phosphoglycerol (DOPG), and 1',3'-bis[1,2-dioleoyl-sn-glycero-3-phospho]-sn-glycerol (CL), were obtained from Avanti Polar Lipids, Inc (Alabaster, AL) and used without further purification. Desired mixtures of phospholipids were first dried in glass tubes under nitrogen and then maintained under a reduced pressure for at least 60 min. Lipid films were subsequently hydrated in PBS to yield a lipid concentration of 10 mg.mL^-1 for tryptophan fluorescence experiments, 1 mg.mL^-1 for DSC experiments, and in PB at 1 mM for CD experiments. The resulting dispersions of large multilamellar vesicles (MLVs) were subjected to 3 to 5 freeze-thaw cycles and then extruded 15 times through polycarbonate membranes (100 nm pore size, Whatman, Maidstone, UK) on an Avanti mini-extruder apparatus (Avanti Polar Lipids, Inc., Alabaster, AL) to generate large unilamellar vesicles (LUVs). Lipid vesicles were used either alone, or in combination with S. aureus peptidoglycan (PGN) (Sigma).
The CD spectra of the peptides were recorded as previously described. […]

K. rhizophila ATCC 9341 = format: cell-based, Kocuria rhizophila
From the text: as §1

A549 cells = assay: Cytotoxicity, trypan blue exclusion; format: cell-based; conditions: A549 human lung carcinoma cells, 2-hour incubation at 37°C, 5% CO2, concentrations as high as 100 μM; 3 independent experiments in triplicate
Procedure: A549 cells (ATCC CCL-185), a human lung carcinoma cell line, were cultivated at 37°C, humid atmosphere and 5% CO2, in Petri dishes with DMEM Advanced medium (Gibco) supplemented with 5% of fetal bovine serum (FBS), 2 mM of glutamine, 100 U of penicillin and 50 μg/mL of streptomycin (Gibco). When the cells reached 80% confluence, the medium was discarded and the cells were washed with PBS 1×, before being treated with Trypsin 1× for 2 minutes to detach them form the culture dish. Cells were then resuspended in DMEM medium, seeded in a 48-well culture plate (500 000 cells/well), and either form of DMS-DA6 solubilized in PBS 1× was added and incubated for 2 hours at 37°C, 5% CO2. DMSO 30% was used as a positive control to induce cell death, and DMEM medium as negative control. After incubation, cell viability was assessed by trypan blue exclusion.

E. faecium BM 4147 = format: cell-based, Enterococcus faecium; conditions: E. faecium BM 4147, multi-resistant strain
From the text: as §1

E. coli ML 35p = format: cell-based, Escherichia coli; conditions: LB, 10^7 cfu/mL, 18 h at 37°C, peptide 0.2-100 μM, averaged over >=3 independent experiments in triplicate
From the text: as §1

E. coli ATCC 35218 = format: cell-based, Escherichia coli; conditions: LB, 10^7 cfu/mL, 18 h at 37°C, peptide 0.2-100 μM, averaged over >=3 independent experiments in triplicate
From the text: as §1

E. coli ATCC 8739 = format: cell-based, Escherichia coli
From the text: as §1

E. coli K12 = format: cell-based, Escherichia coli; conditions: LB, 10^7 cfu/mL, 18 h at 37°C, peptide 0.2-100 μM, averaged over >=3 independent experiments in triplicate
From the text: as §1

B. subtilis CIP 52.65 = format: cell-based, Bacillus subtilis subsp. subtilis
From the text: as §1

[3] = LB, 10^7 cfu/mL, 18 h at 37°C, averaged over >=3 independent experiments in triplicate
[4] = resazurin dye added after MIC, further 18 h at 37°C, 99.9% killed, averaged over >=3 experiments in triplicate

SMILES: CC[C@H](C)[C@H](NC(=O)CNC(=O)[C@H](Cc1c[nH]c2ccccc12)NC(=O)[C@@H](NC(=O)CN)C(C)C)C(=O)N[C@@H](C)C(=O)N[C@@H](CCCCN)C(=O)N[C@H](C(=O)N[C@@H](C)C(=O)NCC(=O)N[C@@H](CCCCN)C(=O)N[C@H](C(=O)N[C@@H](CC(C)C)C(=O)NCC(=O)N[C@@H](CC(N)=O)C(=O)N[C@H](C(=O)N[C@@H](CC(C)C)C(=O)N1CCC[C@H]1C(=O)N[C@@H](Cc1c[nH]cn1)C(=O)N[C@H](C(=O)N[C@@H](Cc1ccccc1)C(=O)N[C@@H](CO)C(=O)N[C@@H](CO)C(=O)N[C@@H](CC(N)=O)C(=O)N[C@@H](CCC(N)=O)C(=O)N[C@@H](CO)C(N)=O)C(C)C)[C@@H](C)CC)C(C)C)[C@@H](C)CC [DMS-DA6-NH2] (H-GVWGIAKIAGKVLGNILPHVFSSNQS-NH2)
- MIC (E. faecalis ATCC 29212; [3]): 50 µM (≈ 135 µg/mL)
- MBC (E. faecalis ATCC 29212; [4]): 50 µM (≈ 135 µg/mL)
- MIC (S. aureus ATCC 6538; [3]): 6.25 µM (≈ 16.8 µg/mL)
- MBC (S. aureus ATCC 6538; [4]): 6.25 µM (≈ 16.8 µg/mL)
- MIC (S. aureus ATCC 29213; [3]): 3.12 µM (≈ 8.4 µg/mL)
- MBC (S. aureus ATCC 29213; [4]): 6.25 µM (≈ 16.8 µg/mL)
- MIC (S. aureus ST 1065; [3]): 12.5 µM (≈ 33.7 µg/mL)
- MBC (S. aureus ST 1065; [4]): 12.5 µM (≈ 33.7 µg/mL)
- MIC (S. aureus DAR 5829; [3]): 25 µM (≈ 67.3 µg/mL)
- MBC (S. aureus DAR 5829; [4]): 50 µM (≈ 135 µg/mL)
- MIC [1]: >100 µM
- peptide concentration at which the maximal absorption intensity (ONPG hydrolysis) after 240 minutes was reached (S. aureus ST1065): 12.5 µM
- MIC (S. epidermidis BM3302; [3]): 12.5 µM (≈ 33.7 µg/mL)
- MBC (S. epidermidis BM3302; [4]): 12.5 µM (≈ 33.7 µg/mL)
- α-helix conformation ([2]; POPG LUVs): about 80%
- α-helix conformation ([2]; pure zwitterionic POPC LUVs): 40%
- intact peptide remaining: > 90%
- MIC (K. rhizophila ATCC 9341; [3]): 3.12 µM (≈ 8.4 µg/mL)
- MBC (K. rhizophila ATCC 9341; [4]): 3.12 µM (≈ 8.4 µg/mL)
- death of A549 cells (trypan blue exclusion) (A549 cells): neither DMS-DA6-OH (net charge +2) nor DMS-DA6-NH2 (net charge +3) resulted in the death
- MIC (E. faecium BM 4147; [3]): 25 µM (≈ 67.3 µg/mL)
- MBC (E. faecium BM 4147; [4]): 25 µM (≈ 67.3 µg/mL)
- MIC (E. coli ML 35p): >100 µM
- MIC (E. coli ATCC 35218): >100 µM
- MIC (E. coli ATCC 8739; [3]): 25 µM (≈ 67.3 µg/mL)
- MBC (E. coli ATCC 8739; [4]): 50 µM (≈ 135 µg/mL)
- MIC (E. coli K12): >100 µM
- MIC (B. subtilis CIP 52.65; [3]): 6.25 µM (≈ 16.8 µg/mL)
- MBC (B. subtilis CIP 52.65; [4]): 6.25 µM (≈ 16.8 µg/mL)
